The MIC is the lowest concentration that inhibits growth of the organism.

Values after ≈ are worked out from the molar mass of the structure shown. Results filed as inconclusive are left out. Active and inactive are the calls of the source.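 The calls were made as follows: active = a dose response, with MIC, the lowest growth-blocking dose, below the top tested dose; inconclusive = replicates split around the top dose, or self-fluorescent without titration; inactive = MIC above the top tested dose.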 Some results are limits rather than exact numbers.

This note sets out measurements from PubChem BioAssay AID2695 (Broad Institute, 2010).

In this test the test system is C. albicans SC5314 growth, alamar blue fluorescence. The test can be described thus: C. albicans growth inhibition, dose response, SC5314, Alamar Blue fluorescence (AID 2695). The conditions noted are these: 6.5 h. A general note: The colour change of resazurin is a common sign of viable cells or microbes.
For `N#CC1(C#N)C2=C(CCCC2)NC(c2ccccc2)C1(C#N)C#N` (stereo unspecified), the MIC is > 33 µM (inactive).
The value for `O=C(O)CN1C(=O)/C(=C\c2ccc(N3CCCCC3)o2)SC1=S` was > 33 µM (inactive); that for `COc1cc(/C=C2/SC(=S)N(Cc3ccccc3)C2=O)cc(OC)c1O` was 17.5 µM (≈ 6.78 µg/mL); that for `Cc1ccc(Nc2c(-c3ccc(C)o3)nc3ncccn23)cc1` was > 33 µM (inactive).
For `O=C(Oc1c(-c2ccccc2)c(=O)n2c3c(cccc13)CC2)c1cccc([N+](=O)[O-])c1`, the MIC was > 33 µM (inactive).
In the case of `Nc1ncnc2c1ncn2C1OC(CO)CC1O` (stereo unspecified), the MIC is > 33 µM (inactive).
Turning to `CC(=O)c1ccc(Sc2ccccc2)c([N+](=O)[O-])c1`, the MIC was 16.6 µM (≈ 4.54 µg/mL).
The value for `Cc1ccc2nc(/C(C#N)=C/c3ccc([N+](=O)[O-])o3)[nH]c2c1` was 2.1 µM (≈ 0.618 µg/mL); that for `COc1cc(/C=C2\SC(=S)N(NC(=O)c3cccnc3)C2=O)ccc1O` was > 33 µM (inactive); that for `COc1cc(/C=C2\SC(=S)N(NC(=O)c3ccncc3)C2=O)ccc1O` was > 33 µM (inactive).
On to `COc1cc(/C=C2/CC/C(=C/c3ccc(O)c(OC)c3)C2=O)ccc1O`, for which the MIC is > 33 µM (inactive).
On to `O=C(COC(=O)Cc1ccc(S(=O)(=O)N2CCOCC2)s1)NCc1ccc(Cl)cc1`, for which the MIC was > 33 µM (inactive).
The value for `N#C/C(=C/c1ccc([N+](=O)[O-])o1)c1nc2ccccc2[nH]1` was 4.1 µM (≈ 1.15 µg/mL); that for `Cc1ccc(C(=O)c2no[n+]([O-])c2C(=O)c2ccc(C)cc2)cc1` was 16.6 µM (≈ 5.35 µg/mL).
The value for `Cc1ccc(-c2nn3c(C)nnc3s2)cc1NC(=O)CSc1ccc(Cl)cc1` was > 33 µM (inactive).
With `CCOc1cc(/C=C2\N=C(SC(C)C(N)=O)N(c3ccc(OC(F)F)cc3)C2=O)ccc1O` (stereo unspecified), the MIC is > 33 µM (inactive).
